Calls of active or inactive are those of the source. The calls are words filed in the database; no cut-off is given here.
Key:
HeLa = assay: Cytotoxicity against human HeLa cells assessed as inhibition of cell growth incubated for 48 hrs by MTT assay; assay type: functional, cell-based
HEL [1] = assay: Cytotoxicity against human HEL cells assessed as inhibition of cell growth incubated for 48 hrs by MTT assay; assay type: functional, cell-based
K562 [2] = assay: Cytotoxicity against human K562 cells assessed as inhibition of cell growth incubated for 48 hrs by MTT assay; assay type: functional, cell-based; settings: K562, 48 h
LNCaP = assay: Cytotoxicity against human LNCaP cells assessed as inhibition of cell growth incubated for 48 hrs by MTT assay; assay type: functional, cell-based
[3] = Selectivity index, ratio of IC50 for cytotoxicity against human L02 cells to IC50 for cytotoxicity against human HEL cells
[4] = Cytotoxicity against human L02 cells assessed as inhibition of cell growth incubated for 48 hrs by MTT assay; assay type: toxicity, cell-based
HEL [5] = assay: Induction of apoptosis in human HEL cells at 0.5 uM incubated for 48 hrs by annexin V-FITC/propidium iodide staining based flow cytometry relative to control; assay type: functional
HEL [6] = assay: Induction of morphological changes in human HEL cells by fluorescence microscopic analysis; assay type: functional, cell-based
[7] = Selectivity index, ratio of IC50 for cytotoxicity against human L02 cells to IC50 for cytotoxicity against human K562 cells; assay type: toxicity, cell-based; settings: L02 cells and K562 cells, read-out: Ratio IC50
HEL [8] = assay: Induction of cell cycle arrest in human HEL cells assessed as reduction in accumulation of cells at S phase incubated for 12 hrs by flow cytometry; assay type: functional, cell-based
K562 [9] = assay: Induction of cell cycle arrest in human K562 cells assessed as reduction in accumulation of cells at S phase incubated for 12 hrs by flow cytometry; assay type: functional, cell-based
K562 [10] = assay: Induction of cell cycle arrest in human K562 cells assessed as reduction in accumulation of cells at G0/G1 phase incubated for 12 hrs by flow cytometry; assay type: functional, cell-based
K562 [11] = assay: Induction of morphological changes in human K562 cells by fluorescence microscopic analysis; assay type: functional, cell-based
HUVEC = assay: Antiangiogenic activity against human HUVEC cells assessed as inhibition of cell migration at 0.5 uM measured after 24 hrs by scratch wound healing assay; assay type: functional, cell-based
K562 [12] = assay: Induction of apoptosis in human K562 cells at 0.5 uM incubated for 48 hrs by annexin V-FITC/propidium iodide staining based flow cytometry relative to control; assay type: functional
K562 [13] = assay: Induction of cell cycle arrest in human K562 cells assessed as increase in accumulation of cells at G2/M phase incubated for 12 hrs by flow cytometry; assay type: functional, cell-based
HEL [14] = assay: Induction of cell cycle arrest in human HEL cells assessed as reduction in accumulation of cells at G0/G1 phase incubated for 12 hrs by flow cytometry; assay type: functional, cell-based
HEL [15] = assay: Induction of cell cycle arrest in human HEL cells assessed as increase in accumulation of cells at G2/M phase incubated for 12 hrs by flow cytometry; assay type: functional, cell-based
[16] = biological target: Tubulin beta (Homo sapiens) (UniProt P68371+Q9H4B7+Q13509+P04350+Q3ZCM7+P07437+Q13885+Q9BVA1+Q9BUF5+A6NNZ2); assay: Binding affinity to beta-tubulin colchicine binding site in human K562 cells assessed as inhibition of EBI-beta-tubulin adduct band formation preincubated for 2 hrs followed by EBI addition and measured after 1.5 hrs by EBI competition based Western blot analysis; assay type: cell-based; settings: dose 0.2-25 µM, time 3.5 hrs
Tubulin (Homo sapiens) [17] = biological target: T1, Tubulin (Homo sapiens) (UniProt P68371+Q9H4B7+P0DPH7+P68366+Q13509+Q71U36+P04350+Q3ZCM7+P07437+P68363+Q9BQE3+Q6PEY2+Q13885+Q9BVA1+Q9BUF5); assay: Induction of microtubule depolymerization in human K562 cells at 500 nM incubated for 24 hrs by confocal microscopic analysis; assay type: cell-based
Tubulin (Homo sapiens) [18] = biological target: T1, Tubulin (Homo sapiens); assay: Inhibition of microtubule polymerization in human K562 cells at 0.5 uM measured for 60 mins; assay type: cell-based
Tubulin (Homo sapiens) [19] = biological target: T1, Tubulin (Homo sapiens); assay: Induction of microtubule depolymerization in human K562 cells assessed as aggregation of microtubule fibers at 100 nM incubated for 24 hrs by confocal microscopic analysis; assay type: cell-based
[20] = Homo sapiens, HeLa, 48 h, read-out: IC50

## COc1ccc(N(C)c2nc(C(F)(F)F)nc3cc(OC)c(OCCCN4CCCC4)cc23)cc1
HeLa; [20]
  IC50: 445 nM
HEL [1]
  IC50: 1570 nM
K562 [2]
  IC50: 2410 nM
LNCaP
  IC50: 172 nM

## COc1ccc(N(C)c2nc(C(F)(F)F)nc3ccc(Cl)cc23)cc1
[3]
  Ratio IC50: 8.28
[4]
  IC50 at 48 h: 323 nM
HEL [5]
  Activity: 31%
HEL [6]
  Activity: Active
[7]
  selectivity ratio: 1.1
HEL [8]
  Activity: Active
HeLa; [20]
  IC50: 332 nM
HEL [1]
  IC50: 294 nM
K562 [9]
  Activity: Active
K562 [10]
  Activity: Active
K562 [2]
  IC50: 294 nM
K562 [11]
  Activity: Active
HUVEC
  Activity: Active
K562 [12]
  Activity: 19.7%
LNCaP
  IC50: 143 nM
K562 [13]
  Activity: Active
HEL [14]
  Activity: Active
HEL [15]
  Activity: Active

## Cc1ccc2nc(C(F)(F)F)nc(N(C)c3ccc(C(F)(F)F)cc3)c2c1
HeLa; [20]
  IC50: 2870 nM
HEL [1]
  IC50: 1400 nM
K562 [2]
  IC50: 1930 nM
LNCaP
  IC50: 2660 nM

## COc1ccc(N(C)c2nc(C(F)(F)F)nc3ccc(F)cc23)cc1NC(=O)CCl
HeLa; [20]
  IC50: 37 nM
HEL [1]
  IC50: 595 nM
K562 [2]
  IC50: 1390 nM
LNCaP
  IC50: 256 nM

## COc1ccc(N(C)c2nc(C(F)(F)F)nc3cc(OC)c(O)cc23)cc1
HeLa; hela
  IC50: Not Active
HEL [1]
  IC50: 4520 nM
K562 [2]
  IC50: 2520 nM
LNCaP
  IC50: 1630 nM

## CN(c1ccc2c(ccn2C)c1)c1nc(C(F)(F)F)nc2ccc(Cl)cc12
[3]
  Ratio IC50: 3.45
HEL [5]
  Activity: 28.5%
HEL [6]
  Activity: Active
HEL [8]
  Activity: Active
HeLa; [20]
  IC50: 335 nM
HEL [1]
  IC50: 89 nM
K562 [2]
  IC50: 684 nM
K562 [11]
  Activity: Active
HUVEC
  Activity: Active
LNCaP
  IC50: 138 nM
HEL [14]
  Activity: Active
HEL [15]
  Activity: Active

## CNc1cc(N(C)c2nc(C(F)(F)F)nc3ccc(F)cc23)ccc1OC
HeLa; [20]
  IC50: 88 nM
HEL [1]
  IC50: 273 nM
K562 [2]
  IC50: 2250 nM
LNCaP
  IC50: 668 nM

## Cc1ccc2nc(C(F)(F)F)nc(N(C)c3ccc4c(ccn4C)c3)c2c1
HeLa; [20]
  IC50: 1300 nM
HEL [1]
  IC50: 992 nM
K562 [2]
  IC50: 1210 nM
LNCaP
  IC50: 945 nM

## COc1ccc(N(C)c2nc(C(F)(F)F)nc3ccc(Cl)cc23)cc1[N+](=O)[O-]
[4]
  IC50 at 48 h: 570 nM
HEL [6]
  Activity: Active
[7]
  selectivity ratio: 3.22
HeLa; [20]
  IC50: 1000 nM
HEL [1]
  IC50: 397 nM
K562 [9]
  Activity: Active
K562 [10]
  Activity: Active
K562 [2]
  IC50: 177 nM
K562 [11]
  Activity: Active
HUVEC
  Activity: Active
K562 [12]
  Activity: 12.7%
LNCaP
  IC50: 589 nM
K562 [13]
  Activity: Active

## COc1ccc(N(C)c2nc(C(F)(F)F)nc3ccc(F)cc23)cc1
[3]
  Ratio IC50: 19.7
[16]
  Activity: Dose-Dependent Effect
[4]
  IC50 at 48 h: 1950 nM
HEL [5]
  Activity: 32.3%
HEL [6]
  Activity: Active
[7]
  selectivity ratio: 7.36
HEL [8]
  Activity: Active
Tubulin (Homo sapiens) [17]
  Activity: Active
HeLa; [20]
  IC50: 110 nM
HEL [1]
  IC50: 99 nM
K562 [9]
  Activity: Active
K562 [10]
  Activity: Active
Tubulin (Homo sapiens) [18]
  Activity: Active
K562 [2]
  IC50: 265 nM
K562 [11]
  Activity: Active
HUVEC
  Activity: Active
K562 [12]
  Activity: 19.9%
LNCaP
  IC50: 377 nM
K562 [13]
  Activity: Active
HEL [14]
  Activity: Active
HEL [15]
  Activity: Active

## COc1ccc(N(C)c2nc(C(F)(F)F)nc3ccc(C)cc23)cc1
[3]
  Ratio IC50: 3.38
HEL [5]
  Activity: 29.2%
HEL [6]
  Activity: Active
HEL [8]
  Activity: Active
HeLa; [20]
  IC50: 141 nM
HEL [1]
  IC50: 34 nM
K562 [2]
  IC50: 3280 nM
K562 [11]
  Activity: Active
HUVEC
  Activity: Active
LNCaP
  IC50: 237 nM
HEL [14]
  Activity: Active
HEL [15]
  Activity: Active

## COc1ccc(N(C)c2nc(C(F)(F)F)nc3ccc(F)cc23)cc1NC(C)=O
HeLa; [20]
  IC50: 46 nM
HEL [1]
  IC50: 1120 nM
K562 [2]
  IC50: 1590 nM
LNCaP
  IC50: 810 nM

## COc1cc2c(c(OC)c1OC)-c1ccc(OC)c(=O)cc1[C@@H](NC(C)=O)CC2 [COLCHICINE]
HeLa; [20]
  IC50: 15 nM
HEL [1]
  IC50: 156 nM
K562 [2]
  IC50: 975 nM
LNCaP
  IC50: 245 nM

## CCN(CC)c1cc(N(C)c2nc(C(F)(F)F)nc3ccc(F)cc23)ccc1OC
HeLa; [20]
  IC50: 8390 nM
HEL [1]
  IC50: 11700 nM
K562 [2]
  IC50: 21600 nM
LNCaP
  IC50: 13300 nM

## COc1cc2nc(C(F)(F)F)nc(N(C)c3ccc4c(ccn4C)c3)c2cc1O
HeLa; [20]
  IC50: 1120 nM
HEL [1]
  IC50: 468 nM
K562 [2]
  IC50: 2260 nM
LNCaP
  IC50: 481 nM

## CC(=O)O[C@H]1C(=O)[C@@]2(C)[C@H]([C@H](OC(=O)c3ccccc3)[C@]3(O)C[C@H](OC(=O)[C@H](O)[C@@H](NC(=O)c4ccccc4)c4ccccc4)C(C)=C1C3(C)C)[C@]1(OC(C)=O)CO[C@@H]1C[C@@H]2O [PACLITAXEL]
Tubulin (Homo sapiens) [19]
  Activity: Active
HeLa; [20]
  IC50: 6 nM
HEL [1]
  IC50: 200 nM
K562 [2]
  IC50: 874 nM
LNCaP
  IC50: 58 nM

## C=CC(=O)Nc1cc(N(C)c2nc(C(F)(F)F)nc3ccc(F)cc23)ccc1OC
HeLa; [20]
  IC50: 165 nM
HEL [1]
  IC50: 422 nM
K562 [2]
  IC50: 986 nM
LNCaP
  IC50: 402 nM

## COc1ccc(N(C)c2nc(C(F)(F)F)nc3ccc(Cl)cc23)c([N+](=O)[O-])c1
HeLa; [20]
  IC50: 613 nM
HEL [1]
  IC50: 1320 nM
K562 [2]
  IC50: 2250 nM
LNCaP
  IC50: 2590 nM

## CCNc1cc(N(C)c2nc(C(F)(F)F)nc3ccc(F)cc23)ccc1OC
HeLa; [20]
  IC50: 201 nM
HEL [1]
  IC50: 6960 nM
K562 [2]
  IC50: 2420 nM
LNCaP
  IC50: 2560 nM

## CN(c1ccc2c(ccn2C)c1)c1nc(C(F)(F)F)nc2ccc(F)cc12
[4]
  IC50 at 48 h: 2830 nM
HEL [6]
  Activity: Active
[7]
  selectivity ratio: 6.29
HeLa; [20]
  IC50: 22 nM
HEL [1]
  IC50: 363 nM
K562 [9]
  Activity: Active
K562 [10]
  Activity: Active
K562 [2]
  IC50: 450 nM
K562 [11]
  Activity: Active
HUVEC
  Activity: Active
K562 [12]
  Activity: 20.3%
LNCaP
  IC50: 96 nM
K562 [13]
  Activity: Active
